Values of other authors, collected in patent publication US11826492B2, “Intratumoral drug delivery materials and methods for treating breast cancer” (BIOTRONIK AG, priority 2016, dated 2023).
Where two headings read alike, the source gives them in different places.

Settings: Porcine Coronary Arteries

| Compound | Normalized Uptake (ng drug/mg tissue/μg drug on balloon) (3 days) | Normalized Uptake (ng drug/mg tissue/μg drug on balloon) (7 days) |
| --- | --- | --- |
| CO[C@H]1C[C@@H]2CC[C@@H](C)[C@@](O)(O2)C(=O)C(=O)N2CCCC[C@H]2C(=O)O[C@H]([C@H](C)C[C@@H]2CC[C@@H](OCCO)[C@H](OC)C2)CC(=O)[C@H](C)/C=C(\C)[C@@H](O)[C@@H](OC)C(=O)[C@H](C)C[C@H](C)/C=C/C=C/C=C/1C [US 2014/0046254 Everolimus, Everolimus] | 0.02 ng/mg/µg | – |
| CO[C@H]1C[C@@H]2CC[C@@H](C)[C@@](O)(O2)C(=O)C(=O)N2CCCC[C@H]2C(=O)O[C@H]([C@H](C)C[C@@H]2CC[C@H](n3cnnn3)[C@H](OC)C2)CC(=O)[C@H](C)/C=C(\C)[C@@H](O)[C@@H](OC)C(=O)[C@H](C)C[C@H](C)/C=C/C=C/C=C/1C [US 2014/0046254 Zotarolimus, Zotarolimus] | – | 0.04 ng/mg/µg |
